Measured values from ChEMBL document CHEMBL2417363, “Identification of quinazolinyloxy biaryl urea as a new class of SUMO activating enzyme 1 inhibitors” (Bioorg Med Chem Lett, 2013).
Activity calls are given as the source filed them. The rule behind the calls is not given here.

What was measured:
[1] = Octanol-water partition coefficient, log P of the compound; type: physicochemical
[2] = Permeability across human Caco2 cells; type: ADME, cell-based; conditions: Caco-2, read-out: permeability
SUMO-activating enzyme [3] = target: T1, SUMO-activating enzyme (Homo sapiens, UniProt Q9UBT2); test: Inhibition of SUMO E1 (unknown origin) assessed as SUMO E1-SUMO thioester bond formation; type: protein-complex assay
T1 sequence (Q9UBE0 whole entry): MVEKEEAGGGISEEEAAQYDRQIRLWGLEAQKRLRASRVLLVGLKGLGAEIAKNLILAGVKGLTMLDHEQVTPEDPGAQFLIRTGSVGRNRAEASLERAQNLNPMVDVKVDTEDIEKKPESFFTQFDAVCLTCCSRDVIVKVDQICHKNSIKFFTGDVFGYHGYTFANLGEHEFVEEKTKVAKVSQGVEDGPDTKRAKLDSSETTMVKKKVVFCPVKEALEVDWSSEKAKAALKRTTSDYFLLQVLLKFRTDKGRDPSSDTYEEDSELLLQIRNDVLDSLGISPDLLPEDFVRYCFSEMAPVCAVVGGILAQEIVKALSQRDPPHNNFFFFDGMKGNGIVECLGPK
T1 sequence (Q9UBT2 whole entry): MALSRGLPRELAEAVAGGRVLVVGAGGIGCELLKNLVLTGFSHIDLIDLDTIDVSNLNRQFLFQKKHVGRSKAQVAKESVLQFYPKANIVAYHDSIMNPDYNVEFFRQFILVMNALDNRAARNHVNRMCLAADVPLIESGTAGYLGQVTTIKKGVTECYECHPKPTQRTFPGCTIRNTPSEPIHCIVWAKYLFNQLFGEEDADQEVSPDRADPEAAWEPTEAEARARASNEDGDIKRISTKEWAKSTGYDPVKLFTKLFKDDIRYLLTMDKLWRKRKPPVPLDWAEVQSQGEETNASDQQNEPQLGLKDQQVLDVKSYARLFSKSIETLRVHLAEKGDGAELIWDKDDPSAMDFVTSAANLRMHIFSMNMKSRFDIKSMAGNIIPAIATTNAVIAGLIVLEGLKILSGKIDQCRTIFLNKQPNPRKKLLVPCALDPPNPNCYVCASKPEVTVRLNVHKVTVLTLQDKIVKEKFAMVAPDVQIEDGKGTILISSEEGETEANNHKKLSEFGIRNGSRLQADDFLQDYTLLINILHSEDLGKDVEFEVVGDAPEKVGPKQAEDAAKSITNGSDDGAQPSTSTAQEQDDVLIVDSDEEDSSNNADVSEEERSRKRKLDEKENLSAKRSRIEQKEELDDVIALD

[4] = target: T2, SUMO-activating enzyme (Homo sapiens) (UniProt Q9UBE0+Q9UBT2); test: Inhibition of SUMO E1 (unknown origin)-mediated RanGAP1 sumoylation at 100 uM by immunoblotting analysis; type: protein-complex assay
[5] = target: T2, SUMO-activating enzyme (Homo sapiens); test: (§1) Inhibition of SUMO E1 (unknown origin)-mediated RanGAP1 sumoylation by immunoblotting analysis; type: protein-complex assay
SUMO-activating enzyme [6] = target: T1, SUMO-activating enzyme; test: as §1; type: protein-complex assay
[7] = target: T2, SUMO-activating enzyme (Homo sapiens); test: Inhibition of SUMO E1 (unknown origin)-mediated RanGAP1 sumoylation at < 30 uM by immunoblotting analysis; type: protein-complex assay
[8] = target: T2, SUMO-activating enzyme (Homo sapiens); test: Inhibition of SUMO E1 (unknown origin)-biotinylated SUMO-1 thioester complex formation at 10 uM after 20 mins by SDS-PAGE analysis in presence of ATP; type: protein-complex assay

| SMILES | logP [1] | Papp [2] | IC50 (SUMO-activating enzyme [3]) | inhibition [4] | inhibition [5] | IC50 (SUMO-activating enzyme [6]) | inhibition [7] | inhibition [8] |
| --- | --- | --- | --- | --- | --- | --- | --- | --- |
| COc1ccc(NC(=O)Nc2ccc(Cc3ccc(NC(=O)Nc4ccc(OC)cc4)cc3)cc2)cc1 | 4.4 | 35.3 ×10⁻⁶ cm/s | 11.7 µM |  |  |  |  |  |
| O=C(Nc1ccccc1)Nc1ccc(Oc2ncnc3cc(Cl)ccc23)nc1 |  |  |  | Active | Dose-dependent effect | 57.3 µM |  |  |
| Cc1cccc(NC(=O)Nc2ccc(Cc3ccc(NC(=O)Nc4cccc(C)c4)cc3)cc2)c1 | 4.8 | 35.4 ×10⁻⁶ cm/s | 14.4 µM |  |  |  |  |  |
| O=C(Nc1ccc(Oc2ncnc3cc(Cl)ccc23)nc1)Nc1cccc(C(F)(F)F)c1 | 4.5 | 66.2 ×10⁻⁶ cm/s |  | Active | Dose-dependent effect | 35.6 µM | inactive |  |
| CCCCCC/C=C\CCCCCCCc1cccc(O)c1C(=O)O |  |  |  |  |  |  |  | Active |
| N#Cc1ccc(NC(=O)Nc2ccc(Cc3ccc(NC(=O)Nc4ccc(C#N)cc4)cc3)cc2)cc1 | 2.8 | 1.52 ×10⁻⁶ cm/s | 11.1 µM |  |  |  |  |  |
| O=C(Nc1ccc(OCc2ccccc2)cc1)Nc1ccc(Oc2ncnc3cc(Cl)ccc23)nc1 |  |  |  | Active | Dose-dependent effect | 35.4 µM |  |  |
| COc1ccc(NC(=O)Nc2ccc(Oc3ncnc4cc(Cl)ccc34)nc2)cc1OC1CCCC1 |  |  |  | Active | Dose-dependent effect | 13.4 µM |  | Active |
| O=C(Nc1ccc(F)cc1)Nc1ccc(Oc2ncnc3cc(Cl)ccc23)nc1 |  |  |  | Active | Dose-dependent effect | 73 µM |  |  |
